Data on 10 molecules can be found in ChEMBL document CHEMBL3132848, “Glycosidase inhibition by novel guanidinium and urea iminosugar derivatives” (Medchemcomm, 2013).

A short description of experiment [1]: Inhibition of alpha-glucosidase in yeast after 30 mins by spectrophotometric analysis. Further details: species or system Saccharomyces cerevisiae.
Experiment [2] is described as follows: Inhibition of beta-glucosidase in almond after 30 mins by spectrophotometric analysis. Further details: species or system Prunus dulcis.
A short description of experiment [3]: Inhibition of naringinase in Penicillium decumbens after 30 mins by spectrophotometric analysis.
Experiment [4] in a line: Inhibition of alpha-mannosidase in jack bean after 30 mins by spectrophotometric analysis. On the set-up: species or system Canavalia ensiformis.
For experiment [5], the target named is Alpha-galactosidase (Coffea arabica, UniProt Q42656). Description: Inhibition of alpha-galactosidase in green coffee bean after 30 mins by spectrophotometric analysis.
Alpha-galactosidase, sequence (Q42656 whole entry): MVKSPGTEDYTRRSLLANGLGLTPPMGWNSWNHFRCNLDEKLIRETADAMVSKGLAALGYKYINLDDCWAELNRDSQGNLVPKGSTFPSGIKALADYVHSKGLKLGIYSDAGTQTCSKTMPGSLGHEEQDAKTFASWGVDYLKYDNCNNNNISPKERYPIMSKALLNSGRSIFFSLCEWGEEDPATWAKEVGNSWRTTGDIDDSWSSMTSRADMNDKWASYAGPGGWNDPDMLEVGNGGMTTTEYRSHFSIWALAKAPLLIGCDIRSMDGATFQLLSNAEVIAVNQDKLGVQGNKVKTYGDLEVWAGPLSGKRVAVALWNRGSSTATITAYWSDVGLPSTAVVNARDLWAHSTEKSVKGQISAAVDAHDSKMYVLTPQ
For experiment [6], the target named is T1, Beta-galactosidase (Bos taurus, UniProt Q58D55).
T1 sequence (Q58D55 whole entry): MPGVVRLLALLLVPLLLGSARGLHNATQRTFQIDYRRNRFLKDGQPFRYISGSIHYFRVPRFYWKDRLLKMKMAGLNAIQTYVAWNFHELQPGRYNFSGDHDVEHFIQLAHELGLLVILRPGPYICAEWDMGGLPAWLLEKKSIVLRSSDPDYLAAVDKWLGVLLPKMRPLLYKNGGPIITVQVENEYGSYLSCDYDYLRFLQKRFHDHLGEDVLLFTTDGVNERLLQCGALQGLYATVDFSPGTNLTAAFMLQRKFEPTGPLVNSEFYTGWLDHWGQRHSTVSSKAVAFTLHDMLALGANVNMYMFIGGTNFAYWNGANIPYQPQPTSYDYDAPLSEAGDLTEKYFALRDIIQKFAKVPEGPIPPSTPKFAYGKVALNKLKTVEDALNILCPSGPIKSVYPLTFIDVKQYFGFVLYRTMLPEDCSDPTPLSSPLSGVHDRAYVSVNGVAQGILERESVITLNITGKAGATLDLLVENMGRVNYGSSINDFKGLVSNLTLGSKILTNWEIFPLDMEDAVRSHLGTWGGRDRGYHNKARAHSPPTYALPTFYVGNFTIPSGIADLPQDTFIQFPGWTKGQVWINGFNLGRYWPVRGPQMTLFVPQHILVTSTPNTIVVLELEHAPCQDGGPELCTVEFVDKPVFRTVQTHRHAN
Description: Inhibition of beta-galactosidase in bovine liver after 30 mins by spectrophotometric analysis.

Experiment [7] in a line: Inhibition of beta-mannosidase in Roman snail after 30 mins by spectrophotometric analysis. Further details: species or system Helix pomatia.

Some results are limits rather than exact numbers.

With `N=C(NCCOCCO)N1C[C@H](O)[C@@H](O)[C@H](O)[C@H]1CO`, the IC50 in experiment [1] is 251 µM; in experiment [2] it was above 1000 µM; in experiment [3], 172 µM; in experiment [4], above 1 mM; in experiment [5] it was above 1000 µM; in experiment [6], above 1000 µM.
With `N=C(NCCO)N1C[C@H](O)[C@@H](O)[C@H](O)[C@H]1CO`, the IC50 in experiment [1] is 133 µM; in experiment [2], 457 µM; in experiment [3], 645 µM; in experiment [4], above 1 mM; in experiment [5], 540 µM; in experiment [6], above 1000 µM.
With `CCCCNC(=O)N1C[C@H](O)[C@@H](O)[C@H](O)[C@H]1CO`, the IC50 in experiment [1] was above 1000 µM; in experiment [7] it was above 1 mM; in experiment [2] it was above 1000 µM; in experiment [3], above 1000 µM; in experiment [4], above 1 mM; in experiment [5] it was above 1000 µM. The molecule further showed a half-maximal inhibitory concentration (IC50) in experiment [6] of 27 µM.
For the molecule `CCCCCCN1C[C@H](O)[C@@H](O)[C@H](O)[C@H]1CO`, the IC50 is 134 µM in experiment [1]; above 1 mM in experiment [7]; 59 µM in experiment [2]; 6 µM in experiment [3]; above 1 mM in experiment [4]; 251 µM in experiment [5]. In experiment [6], this molecule yielded an IC50 above 1000 µM.
Take `CCCCCCCCNC(=N)N1C[C@H](O)[C@@H](O)[C@H](O)[C@H]1CO`: the IC50 in experiment [1] was determined as 31 µM; in experiment [2], 25 µM; in experiment [3], 67 µM; in experiment [4], 0.055 mM; in experiment [5] it was 23 µM; in experiment [6], 2.6 µM.
Turning to `N=C(NCc1ccccc1)N1C[C@H](O)[C@@H](O)[C@H](O)[C@H]1CO`, the IC50 is above 1000 µM in experiment [1]; 4.3 µM in experiment [2]; 27 µM in experiment [3]; above 1 mM in experiment [4]; above 1000 µM in experiment [5]; 5.1 µM in experiment [6].
Regarding `CCCCNC(=N)N1C[C@H](O)[C@@H](O)[C@H](O)[C@H]1CO`, the IC50 is 20 µM in experiment [1]; 0.408 mM in experiment [7]; 41 µM in experiment [2]; above 1000 µM in experiment [3]; 0.113 mM in experiment [4]; 18 µM in experiment [5]. Moreover, in experiment [6], the half-inhibitory concentration (IC50) is 15 µM.
As for `OC[C@H]1NC[C@H](O)[C@@H](O)[C@@H]1O` [DUVOGLUSTAT], the IC50 was 167 µM in experiment [1]; above 1 mM in experiment [7]; 312 µM in experiment [2]; 33 µM in experiment [3]; above 1 mM in experiment [4].
In the case of `N=C(NCCCc1ccccc1)N1C[C@H](O)[C@@H](O)[C@H](O)[C@H]1CO`, the IC50 in experiment [1] was above 1000 µM; in experiment [2] it was 67 µM; in experiment [3], 33 µM; in experiment [4], above 1 mM; in experiment [5], above 1000 µM; in experiment [6], 6.2 µM.
`N=C(NCCCOCC12CC3CC(CC(C3)C1)C2)N1C[C@H](O)[C@@H](O)[C@H](O)[C@H]1CO`: the IC50 in experiment [1] is 131 µM; in experiment [2] it was 489 µM; in experiment [3], 22 µM; in experiment [4], above 1 mM; in experiment [5] it was above 1000 µM; in experiment [6], 5.4 µM.

In general, IC50 refers to the concentration at which inhibition is half-maximal. High values mean lower potency, low ones higher potency.
